# Values of other authors, collected in US11179370B2, “Cannabinoid receptor antagonists/inverse agonists useful for treating disease conditions, including metabolic disorders and cancers” (Jenrin Discovery, LLC, priority 2012, dated 2021).
# Details: type 2 diabetes patients without other anti-diabetic medication, after six months of treatment, baseline value 7.9
smiles,measurement,value
Cc1c(C(=O)NN2CCCCC2)nn(-c2ccc(Cl)cc2Cl)c1-c1ccc(Cl)cc1 [rimonabant],HbA1c levels lowered,0.8%
